Data published in US9538754B2, “Combinations of pyrimethanil and monoterpenes” (Janssen Pharmaceutica NV, priority 2010, dated 2017).

What was measured:
Assay in all cases: Poison Plate Assay
Type in all cases: cell-based
[1] = tested on: Chaetomium globosum CEB1218.2; settings: CEB1218.2, 336 h, pyrimethanil (I) with thymol (II-a), ppm total active ingredient, Glucose Agar, 27° C., growth evaluated after two weeks, read-out: MIC-values (minimum inhibitory concentration) in ppm
Experimental: (§1) • Name of component (I): pyrimethanil • Name of component (II): thymol (II-a) • β-thujaplicin (II-b) • Test models: Fungi: to each well of a 24-well microliter plate, 1000 μl of Glucose Agar (GA: 10 g glucose, 1.5 g K2HPO4, 2 g KH2PO4, 1 g (NH4)2SO4, 0.5 g MgSO4 and 12.5 g agar in 1 liter deionised water) containing the appropriate combination of the test compounds in one of the concentrations of a dose series is added. The nutrient medium is inoculated with the test fungi by adding a sporeimycelium suspension (10 μl) or a small piece of agar from the margin of an actively growing colony and incubated under dark at 27° C. with 70% relative humidity. […] In addition to this dose series, pyrimethanil single was also tested at 9.50-7.13-5.34-4.01-3.01-2.25-1.69-1.27-0.95-0.71-0.53-0.40 ppm in order to define a lower limit to its activity.
(§2) A. G. Nass (1957) “Some aspects of the notions additivity, synergism and antagonism in the simultaneous activity of two antibacterial agents in vitro” Arch. intern. Pharmaco-dynamie 109: 211-228; Steinberg, D. C. (2000) “Measuring synergy” cosmetics & Toiletries 115(11): 59-62; and Lada, A., A. N. Petrocci, H. A. Green, and J. J. Merianos (1977) “Antimicrobial composition” U.S. Pat. No. 4,061,750, 3 pp.):
(§3) [formula] wherein: • QA is the concentration of compound A in ppm, acting alone, which produced an end point (e.g. MIC), • Qa is the concentration of compound A in ppm, in the mixture, which produced an end point (e.g. MIC), • QB is the concentration of compound B in ppm, acting alone, which produced an end point (e.g. MIC), • Qb is the concentration of compound B in ppm, in the mixture, which produced an end point (e.g. MIC). When the Synergy Index is greater than 1.0, antagonism is indicated. When the SI is equal to 1.0, additivity is indicated.

[2] = tested on: Stachybotrys atra CBS328.37; settings: CBS328, 336 h, pyrimethanil (I) with thymol (II-a), ppm total active ingredient, Glucose Agar, 27° C., growth evaluated after two weeks, read-out: MIC-values (minimum inhibitory concentration) in ppm
Experimental: as §1, §2, §3

[3] = tested on: Ulocladium atrum IMI 214669a; settings: Alternaria atra, IMI214669A, 336 h, pyrimethanil (I) with β-thujaplicin (II-b), ppm total active ingredient, Glucose Agar, 27° C., growth evaluated after two weeks, read-out: MIC-values (minimum inhibitory concentration) in ppm
Experimental: as §1, §2, §3

**Q.** Which results are given for `Cc1cc(C)nc(Nc2ccccc2)n1` [component (I), 4,6-dimethyl-N-phenyl-2-pyrimidinamine]?
**A.** MIC [1]: 400 µg/mL; MIC [2]: 127 µg/mL; MIC [3]: 23 µg/mL
